# Results reported in patent publication US8012944B2, “Method for treating cancer using IAP antisense oligomer and chemotherapeutic agent” (Pharmascience Inc., priority 2003, dated 2011).
# d = 2'-deoxy (DNA); m = 2'-O-methyl
# Columns and labels:
# Type in all cases: cell-based, human
# XIAP mRNA [1] = experiment: XIAP mRNA knock-down in H460 cells (real-time RT-PCR / TaqMan)
# Procedure: RNA was extracted from cells lysed in RLT buffer (QIAGEN, Valencia, Calif.), and purified using QIAGEN RNeasy columns/kits. Real-time quantitative PCR was performed on a Perkin-Elmer ABI 7700 Prism PCR machine. RNA was reverse transcribed and amplified according to the TaqMan Universal PCR Master Mix protocol of PE Biosystems, using primers and probes designed to specifically recognize XIAP, HIAP1, survivin, or GAPDH. For human survivin, the forward primer was 5′-[…]-3′ (SEQ ID NO: 263), the reverse primer was 5′-GAAAGGAAAGCGCAACCG-3′ (SEQ ID NO: 264), and the probe was 5′-(FAM)[…](TAMRA)-3′ (SEQ ID NO: 265). For human HIAP1, the forward primer was 5′-[…]-3′ (SEQ ID NO: 266), the reverse primer was 5′-[…]-3′ (SEQ ID NO: 267), and the probe was 5′-(FAM)[…](TAMRA)-3′ (SEQ ID NO: 268). For human XIAP, the forward primer was 5′-[…]-3′ (SEQ ID NO: 269), the reverse primer was 5′-[…]-3′ (SEQ ID NO: 270), and the probe was 5′-(FAM)[…](TAMRA)-3′ (SEQ ID NO: 271). For human GAPDH, the forward primer was 5′-GAAGGTGAAGGTCGGAGTC-3′ (SEQ ID NO: 272), the reverse primer was 5′-GAAGATGGTGATGGGATTC-3′ (SEQ ID NO: 273), and the probe was 5′-(JOE)[…](TAMRA)-3′ (SEQ ID NO: 274). FAM is 6-carboxyfluoroscein, JOE is 6-carboxy-4,5-dichloro-2,7-dimethoxyfluoroscein, and TAMRA is 6-carboxy-N,N,N′,N′-tetramethylrhodamine. FAM and JOE are 5′ reporter dyes, while TAMRA is a 3′ quencher dye.
# Relative quantification of gene expression was performed as described in the PE Biosystems manual using GAPDH as an internal standard. The comparative Ct (cycle threshold) method was used for relative quantitation of IAP mRNA levels compared to GAPDH mRNA levels. Briefly, real-time fluorescence measurements were taken at each PCR cycle and the threshold cycle (Ct) value for each sample was calculated by determining the point at which fluorescence exceeded a threshold limit of 30 times the baseline standard deviation. The average baseline value and the baseline SD are calculated starting from the third cycle baseline value and stopping at the baseline value three cycles before the signal starts to exponentially rise. The PCR primers and/or probes for the specific IAPs were designed to span at least one exon-intron boundary separated by 1 kb or more of genomic DNA, to reduce the possibility of amplifying and detecting genomic DNA contamination. The specificity of the signal, and possible contamination from DNA, were verified by treating some RNA samples with either DNase or RNase, prior to performing the reverse transcription and PCR reaction steps.
# A portion of the 96 nucleobase oligomers depicted in Table 2 were rescreened for their ability to knock-down XIAP mRNA in NCI-H460 cells at […] post-transfection.
# One day prior to transfection, H460 cells were plated in 6- or 96-well tissue culture plates. Phosphorothioate antisense oligonucleotides were delivered into cells with Lipofectamine 2000 (Life Technologies) in the form of liposome-oligonucleotide complexes. Following a 4.5 or 6 h transfection, the transfection medium was replaced with RPMI medium containing 10% FBS, and the cells incubated for another 24 or 48 h.
# Total RNA from H460 cells treated with liposome-oligonucleotide complexes for 6 hours was immediately isolated using RNeasy mini spin columns and DNase treatment (QIAGEN, Valencia, Calif.). Specific XIAP mRNA was measured using a real-time quantitative RT-PCR method. […]
# XIAP mRNA [2] = experiment: as above; details: 2 × 2 MBO; NCI-H460 cells, 9 hours post-transfection; relative level (mock control 1.01)
# XIAP protein = XIAP protein knock-down in T24 cells (XIAP ELISA, relative to total protein); details: first screen of the library
# From the text: We used TaqMan quantitative PCR (described below) to assay for changes in mRNA levels after oligonucleotide treatment. We employed ELISA for determining XIAP protein levels and western blotting for determining HIAP1 protein levels. Transfection conditions were optimized with Lipofectamine plus or Lipofectamine 2000 (Life Technologies, Canada) on T24 bladder carcinoma cells or H460 non-small cell lung carcinoma cells, or lipofectin on SF-295 glioblastoma cells, using a fluorescein-tagged sense oligonucleotide (5′-mGmAGAAGATGACTGGTAAmCmA-3′; SEQ ID NO: 261) from XIAP spanning the start codon as a control. The results were visualized and gauged by epi-fluorescence microscopy. In the case of T24 cells, transfections were further optimized based on the ability of a published oligonucleotide to downregulate survivin expression (Li et al., Nat. Cell Biol. 1:461-466, 1999) (5′-U/TGTGCTATTCTGTGAAU/TU/T-3′ SEQ ID NO: 262). We optimized the transfection conditions based on the TaqMan results of survivin RNA knock-down detected with PCR primers and fluorescent probe, described in detail below. […] We then applied these conditions to screen for XIAP protein knock-down using the oligo library against T24 cells.
# A standard colorimetric XIAP ELISA assay was performed using an affinity-purified rabbit polyclonal antibody to XIAP as a capture antibody, and was detected with a XIAP monoclonal antibody (MBL, Japan) and a biotinylated anti-mouse Ig antibody and horseradish peroxidase-conjugated streptavidin and TMB substrate. Alternatively, a polyclonal XIAP or HIAP1 antibody may be used to measure XIAP or HIAP1 protein levels, respectively.
# The XIAP synthetic library of 96 antisense oligonucleotides was first screened for decreases in XIAP protein levels. Specifically, T24 cells (1.5×10^4 cells/well) were seeded in wells of a 96-well plate on day 1, and were cultured in antibiotic-free McCoy's medium for 24 hours. On day 2, the cells were transfected with XIAP antisense oligonucleotides as described above (oligonucleotides are labeled according to their plated position, i.e., A1 to H12, and include two repeats, A13 and B13 that contain lyophilized DNA pellets that stuck to the sealing membrane). Briefly, the nucleobase oligomers were diluted in 10 μl/well of serum-free, antibiotic-free McCoy's medium and then PLUS reagent was added. Lipofectamine was diluted in 10 μl/well of serum-free, antibiotic-free McCoy's medium, and both mixes were incubated for 15 minutes at room temperature. The mixes were then combined and incubated for 15 minutes at room temperature.
# In the meantime, the complete medium was removed from the cells and 50 μl/well of serum-free, antibiotic-free medium was added to the cells. The transfection mixes were added to the well, and the cells were incubated for three hours. Then 30 μl/well of serum-free, antibiotic-free medium and 100 μl/well of antibiotic-free complete medium, containing 20% fetal bovine serum were added to each well.
# At day 3, XIAP RNA levels were measured using quantitative real-time PCR techniques, as described above. At day 4, XIAP protein levels were measured by ELISA (FIGS. 1A, 1C, 1E, 1G, 1I, and 1K), and total cellular protein was measured biochemically (FIGS. 1B, 1D, 1F, 1H, 1J, and 1L; used to normalize the XIAP protein levels). The results were compared to a mock transfection sample (treated with the transfection agent but no oligonucleotide DNA was added, and then processed as for the other samples). Time course experiments determined that the optimal time for protein knock-down to be around 12 to 24 hours. […]
Sequence,XIAP down-regulation H460 RNA (XIAP mRNA [1]),XIAP RNA (XIAP mRNA [2]),"XIAP protein levels relative to total protein, compared to mock transfection (in words) (XIAP protein)"
ACCCTGGATACCATTTAGC (antisense; chemistry not fully specified) [Code F8],47%,0.62,some decrease
"GTTATAGGAGCTAACAAAT (antisense; sugars from the 5' end m2 d15 m2, backbone and T or U not given here; further chemistry not fully specified) [Code B3]",34%,0.64,–
"TACACTTAGAAATTAAATC (antisense; sugars from the 5' end m2 d15 m2, backbone, methylation of C and T or U not given here; further chemistry not fully specified) [Code A12]",46%,0.54,–
"TAGATCTGGAACCAGAACC (antisense; sugars from the 5' end m2 d15 m2, backbone, methylation of C and T or U not given here; further chemistry not fully specified) [Code C10]",53%,0.56,–
"TATATATTCTTGTCCCTTC (antisense; sugars from the 5' end m2 d15 m2, backbone, methylation of C and T or U not given here; further chemistry not fully specified) [Code A9]",62%,0.46,–
TCGGGTATATGGTGTCTGA (antisense; chemistry not fully specified) [Code A6],72%,0.27,–
"TCTAGAGGGTGGCTCAGGA (antisense; sugars from the 5' end m2 d15 m2, backbone and T or U not given here; further chemistry not fully specified) [Code B1]",66%,0.34,–
"TCTGCCATGGATGGATTTC (antisense; sugars from the 5' end m2 d15 m2, backbone, methylation of C and T or U not given here; further chemistry not fully specified) [Code G7]",41%,0.66,–
"TGAATTAATTTTTAATATC (antisense; sugars from the 5' end m2 d15 m2, backbone and T or U not given here; further chemistry not fully specified) [Code H1]",13%,0.87,–
"TGAGAGCCCTTTTTTTGTT (antisense; sugars from the 5' end m2 d15 m2, backbone and T or U not given here; further chemistry not fully specified) [Code D1]",75%,0.25,–
"TGTTCTAACAGATATTTGC (antisense; sugars from the 5' end m2 d15 m2, backbone, methylation of C and T or U not given here; further chemistry not fully specified) [Code G8]",49%,0.64,–
"TTACCACATCATTCAAGTC (antisense; sugars from the 5' end m2 d15 m2, backbone and T or U not given here; further chemistry not fully specified) [Code F2]",34%,0.64,–
"TTAGCAAAATATGTTTTAA (antisense; sugars from the 5' end m2 d15 m2, backbone and T or U not given here; further chemistry not fully specified) [Code G1]",33%,0.67,–
"TTCAGTTTTCCACCACAAC (antisense; sugars from the 5' end m2 d15 m2, backbone, methylation of C and T or U not given here; further chemistry not fully specified) [Code H6]",68%,0.31,–
"TTGTAGACTGCGTGGCACT (antisense; sugars from the 5' end m2 d15 m2, backbone and T or U not given here; further chemistry not fully specified) [Code B5]",61%,0.38,–
"TTTCTCAGTAGTTCTTACC (antisense; sugars from the 5' end m2 d15 m2, backbone, methylation of C and T or U not given here; further chemistry not fully specified) [Code D9]",39%,0.73,–
